Source: BindingDB's records for doi:10.1016/j.bmcl.2004.04.026 (Morphochem, 2004)
pIC50: −log10 of the molar value.

How the values were obtained:
[1] = target: T1, Human immunodeficiency virus type 1 protease (Human immunodeficiency virus 1, UniProt Q72874); experiment: Inhibitory concentration against Protease
[2] = target: T1, Human immunodeficiency virus type 1 protease; experiment: Evaluated for inhibition of Protease after CLND/MS correction from the crude mixture
[3] = target: T1, Human immunodeficiency virus type 1 protease; experiment: Evaluated for inhibition of Protease after resynthesis and purification

pIC50 [1] | pIC50 [2] | pIC50 [3] | SMILES
4.08 | 5.92 | 5.34 | C[C@@H](c1ccccc1)C1C(=O)O[C@](CCc2ccccc2)(C(=O)NCc2ccc(C(C)(C)C)cc2)C1=O (some centres not stated)
< 3.00 | – | – | COc1cc(CC2C(=O)OC(C)(C(=O)NC3CC3)C2=O)cc(OC)c1OC (configuration not stated) [3-Hydroxy-2-methyl-5-oxo-4-(3,4,5-trimethoxy-benzyl)-2,5-dihydro-furan-2-carboxylic acid cyclopropylamide]
< 3.00 | – | – | COc1cc(CC2C(=O)OC(C)(C(=O)NC(C)(C)C)C2=O)cc(OC)c1OC (configuration not stated) [3-Hydroxy-2-methyl-5-oxo-4-(3,4,5-trimethoxy-benzyl)-2,5-dihydro-furan-2-carboxylic acid tert-butylamide]
< 3.00 | – | – | CNC1C(=O)OC(CCc2ccccc2)(C(=O)NCC2CCCO2)C1=O (configuration not stated) [3-Hydroxy-4-methylamino-5-oxo-2-phenethyl-2,5-dihydro-furan-2-carboxylic acid (tetrahydro-furan-2-ylmethyl)-amide]
< 3.00 | – | – | COc1cc(CC2C(=O)OC(CCc3ccccc3)(C(=O)NCC(C)(C)C)C2=O)cc(OC)c1OC (configuration not stated) [3-Hydroxy-5-oxo-2-phenethyl-4-(3,4,5-trimethoxy-benzyl)-2,5-dihydro-furan-2-carboxylic acid (2,2-dimethyl-propyl)-amide]
